Test results: patent publication US8053458B2, “Dipyrazole compounds and their use as central nervous system agents” (Aventis Pharmaceuticals Inc., priority 2005, dated 2011)
Marks after values point to notes of the source that are not given here.

Tests used:
[1] = tested on: AMPA receptors; assay: Voltage whole-cell recording: inhibition of KA-induced rundown of AMPA current in acutely dissociated prefrontal cortical neurons; assay type: cell-based, rats; details: KA 200 μM; rat PFC neurons; whole-cell voltage clamp, held at −60 mV; 0.1 μM was the lowest concentration tested
Method: (§1) Prefrontal cortical (PFC) neurons from young adult (3-5 weeks postnatal) rats are acutely dissociated using procedures similar to those described previously (Feng, et al., J Neurosci, 2001; Chen, et al., Proc Natl Acad Sci USA, 2004). After incubation of brain slices in a NaHCO3-buffered saline, PFC is dissected and placed in an oxygenated chamber containing papain (Sigma, 0.8 mg/ml) in HEPES-buffered Hank's balanced salt solution (HBSS, Sigma) at room temperature. After 40 minutes of enzyme digestion, tissue is rinsed three times in the low Ca^+2, HEPES-buffered saline and mechanically dissociated with a graded series of fire-polished Pasteur pipettes. The cell suspension is then plated into a 35 mm Lux Petri dish, which is then placed on the stage of a Nikon inverted microscope.
(§2) Whole-cell recordings of whole-cell ion channel currents employ standard voltage clamp techniques (Yan et al., Nat Neuroscience, 1999; Wang et al., J Neurosci, 2003; Tyszkiewicz et al., J. Physiol., 2004). The internal solution (inside the patch pipette) consists of (in mM): 180 N-methyl-d-glucamine (NMG), 40 HEPES, 4 MgCl2, 0.1 BAPTA, 12 phosphocreatine, 3 Na2ATP, 0.5 Na2GTP, 0.1 leupeptin, pH=7.2-7.3, 265-270 mosm/L. The external solution consists of (in mM): 127 NaCl, 20 CsCl, 10 HEPES, 1 CaCl2, 5 BaCl2, 12 glucose, 0.001 TTX, 0.02 glycine, pH=7.3-7.4, 300-305 mOsm/L. Recordings are obtained with an Axon Instruments 200B patch clamp amplifier that is controlled and monitored with an IBM PC running pCLAMP (v. 8) with a DigiData 1320 series interface (Axon instruments). Electrode resistances are typically 2-4 MΩ in the bath. After seal rupture to attain whole-cell recording conditions, series resistance (4-10 MΩ) is compensated (70-90%) and periodically monitored. The cell membrane potential is held at −60 mV.
(§3) The application of KA (200 μM) or NMDA (100 μM, in Mg^2+-free solution) evokes a partially desensitizing inward current. KA or NMDA is applied for 2 seconds every 30 seconds to minimize desensitization-induced decrease of current amplitude. Drugs are applied with a gravity-fed ‘sewer pipe’ system. The array of application capillaries (ca. 150 μm i.d.) is positioned a few hundred microns from the cell under study. Solution changes are effected by the SF-77B fast-step solution stimulus delivery device (Warner Instruments). Data are collected with PCLAMP software and analyzed with AXOGRAPH, KALEIDOGRAPH, and STATVIEW.
(§4) Compounds described herein inhibit the KA-induced rundown of AMPA current by either stabilizing the agonist-evoked current of increasing the current. Likewise, compounds described herein increase the NMDA-evoked current. The minimum effective dose (MED) was identified by determining the lowest concentration of inhibitor that was effective in each functional assay.

[2] = tested on: NMDA receptors; assay: Voltage whole-cell recording: increase of NMDA-evoked current in acutely dissociated prefrontal cortical neurons; assay type: cell-based, rats; details: rat PFC neurons; for Increase of NMDA-Evoked Current, Minimal Effective Concentration: NMDA 100 μM in Mg2+-free solution, whole-cell voltage clamp; for Average percent increase in NMDA current (10 μM): compound at 10 μM, NMDA 100 μM
Method: as §1, §2, §3, §4

SMILES: Cc1cc(-c2c(C)nn(-c3ccc(Cl)cc3)c2O)[nH]n1 [Example 5, 2′-(4-Chloro-phenyl)-5,5′-dimethyl-2H,2′H-[3,4′]bipyrazolyl-3′-ol]
- Inhibition of KA-Induced Rundown of AMPA Current, Minimal Effective Concentration [1]: 0.1 * μM

SMILES: Cc1cccc(-n2nc(C)c(-c3cc(C)n[nH]3)c2O)c1 [Example 15, 5,5′-Dimethyl-2′-(3-methyl-phenyl)-2H,2′H-[3,4′]bipyrazolyl-3′-ol]
- Inhibition of KA-Induced Rundown of AMPA Current, Minimal Effective Concentration [1]: 1.0 µM

SMILES: Cc1cc(-c2c(C)nn(-c3cccc(Cl)c3)c2O)[nH]n1 [Example 18, 5,5′-Dimethyl-2′-(3-chlorophenyl)-2H,2′H-[3,4′]bipyrazolyl-3′-ol]
- Increase of NMDA-Evoked Current, Minimal Effective Concentration [2]: 5 µM
- Average percent increase in NMDA current (10 μM) [2]: 55%
- Inhibition of KA-Induced Rundown of AMPA Current, Minimal Effective Concentration [1]: 1.0 µM

SMILES: Cc1cc(-c2c(C)nn(-c3ccccc3)c2O)[nH]n1 [Example 25, 5,5′-Dimethyl-2′-phenyl-2H,2′H-[3,4′]bipyrazolyl-3′-ol]
- Inhibition of KA-Induced Rundown of AMPA Current, Minimal Effective Concentration [1]: 1.0 µM

SMILES: Cc1cc(-c2c(C)nn(-c3ccc(C(F)(F)F)cc3)c2O)[nH]n1 [Example 8, 5,5′-Dimethyl-2′-(4-trifluoromethyl-phenyl)-2H,2′H-[3,4′]bipyrazolyl-3′-ol]
- Increase of NMDA-Evoked Current, Minimal Effective Concentration [2]: 1 µM
- Average percent increase in NMDA current (10 μM) [2]: 303%

SMILES: Cc1cc(-c2c(C)nn(-c3ccccc3F)c2O)[nH]n1 [Example 4, 2′-(2-Fluoro-phenyl)-5,5′-dimethyl-2H,2′H-[3,4′]bipyrazolyl-3′-ol]
- Inhibition of KA-Induced Rundown of AMPA Current, Minimal Effective Concentration [1]: 0.1 * μM
